Where two headings read alike, the source gives them in different places. One block for each molecule: values may come before it.
What was measured:
[1] = type: physicochemical
Protocol: (§1) The lamps were switched on and the solutions irradiated for 18 to 24 hours for the ultraviolet (UV) lamps or 72 to 90 hours for the visible (VIS) light lamps. At the end of the selected irradiation time, the cuvettes were removed from the photolysis chamber and mixed by inversion 2-times. The caps were then removed and 40 microliter aliquots taken and diluted with 1 mL of an aqueous solution containing ˜0.9 mg/mL sodium thiosulfate. The thiosulfate solution converted any I2, IO3^−, and I3^− present in the solution tor such that total iodine species could be determined in one assay.
(§2) The diluted solutions were assayed by high pressure liquid chromatography (HPLC) using a 4.6×250 mm, C-18, 5 micron particle size, reversed phase column with detection at 280 nm for the contrast agent and 230 nm for the thiosulfate and the iodide ion (r). A mobile phase of 30:70 methanol:aqueous buffer (50 mM KH2PO4+7 mL/L 40% tetrabutyl ammonium hydroxide) at 0.75 mL/min was used for elution. Injection volume was 20 microliters. External standards were prepared containing each contrast agent, potassium iodide, and sodium thiosulfate solution and analyzed along with the irradiated samples. The results were reported as weight percentage iodide formed (mg iodide/mg contrast agent times 100).
(§3) Aqueous solutions were prepared containing 50 mM iodinated contrast agent, 10 mM tromethamine HCl buffer (TRIS), with and without sulfobutylether beta-cyclodextrin with an average degree of substitution-7 (SBE7-β-CD), or 2-hydroxypropyl beta-cyclodextrin with an average degree of substitution of ˜6.3 (HP6.3-β-CD) or ˜4.3 (HP4.3-β-CD). The iohexol solution was prepared by dissolving solid iohexol powder while the other solutions were prepared by diluting commercial formulated products and adding sufficient TRIS buffer to reach 10 mM. The pH of the solutions was adjusted to 7.4 with 0.1N hydrochloric acid.
Aliquots of the solutions were irradiated with visible light for 72 hours (0.52 million lux hours). Other aliquots were autoclaved for 20 minutes at 121° C., cooled to room temperature and then irradiated with ultraviolet light for 18 hours (119 watt hours/m2). The solutions were then processed, analyzed and reported as in Example 2, except that the chromatographic peaks of the contrast agents were evaluated at 300 nm for both samples and standards. […]
Aqueous formulations were prepared containing iodinated contrast agents at concentrations used commercially in medical procedures. Sulfobutylether-cyclodextrin, sodium salt, average degree of substitution ˜7 (SBE7CD) was added at varying agent:CD mole ratios. The formulations were placed in glass vials, sealed with rubber stoppers and aluminum crimps, and autoclaved at 121° C. for 20 minutes. Aliquots of the autoclaved solutions were exposed to UV light for 24 hours (159 watt hours/m^2 or VIS light for 72 hours (0.52 million lux hours) as in Example 2. The solutions were then processed, analyzed and reported as in Example 2, with the following two exceptions; 1) the chromatographic peaks of the contrast agents were evaluated at 300 nm for both samples and standards, and 2) only 20 microliter sample aliquots were taken and diluted for HPLC analysis due to the higher concentrations used in this study. Results of the study are presented in the table below along with the solution compositions.

[2] = type: physicochemical; settings: for Iodide formed: 50 mM agent, 10 mM TRIS, pH 7.4, autoclaved then UV 18 h
Protocol: as §1, §2, §3
Aliquots of the solutions were irradiated with visible light for 72 hours (0.52 million lux hours). Other aliquots were autoclaved for 20 minutes at 121° C., cooled to room temperature and then irradiated with ultraviolet light for 18 hours (119 watt hours/m2). The solutions were then processed, analyzed and reported as in Example 2, except that the chromatographic peaks of the contrast agents were evaluated at 300 nm for both samples and standards.
Aqueous solutions were prepared containing 50 mM iohexol, 0, 2.5, 5, 7.5, or 10 mM tromethamine HCl (TRIS) buffer, with and without 2.5 mM sulfobutylether beta-cyclodextrin with an average degree of substitution-7 (SBE7-β-CD). The pH of the solutions was adjusted to 7.4 with 0.1N hydrochloric acid and the solutions were transferred to glass vials. The vials were stoppered, crimp-capped and autoclaved for 20 minutes at 121° C. The pH of the autoclaved solutions was measured after the solutions were at room temperature.
Aliquots of the autoclaved solutions were irradiated with visible light for 72 hours (0.52 million lux hours) and other aliquots irradiated with ultraviolet light for 18 hours (119 watt hours/m2). The solutions were then processed, analyzed and reported as in Example 2, except that the chromatographic peak of the iohexol was evaluated at 300 nm for both samples and standards.
Aqueous formulations were prepared containing iodinated contrast agents at concentrations used commercially in medical procedures. Sulfobutylether-cyclodextrin, sodium salt, average degree of substitution ˜7 (SBE7CD) was added at varying agent:CD mole ratios. The formulations were placed in glass vials, sealed with rubber stoppers and aluminum crimps, and autoclaved at 121° C. for 20 minutes. […]

Iodide Formed, Autoclaved ([1]; Iopromide 150 mg I/mL, pH 7.4, agent:SBE7CD 1:0.05): 0.00289 wt % | Iodide Formed, Autoclaved ([1]; Iopromide 150 mg I/mL, pH 7.4, no SCD (1:0)): 0.00383 wt % | Iodide Formed, Autoclaved ([1]; Iopromide 240 mg I/mL, pH 7.4, agent:SBE7CD 1:0.05): 0.00217 wt % | Iodide Formed, Autoclaved ([1]; Iopromide 240 mg I/mL, pH 7.4, no SCD (1:0)): 0.00204 wt % | Iodide Formed, Autoclaved ([1]; Iopromide 300 mg I/mL, pH 7.4, agent:SBE7CD 1:0.05): 0.00118 wt % | Iodide Formed, Autoclaved ([1]; Iopromide 300 mg I/mL, pH 7.4, no SCD (1:0)): 0.00145 wt % | Iodide Formed, Autoclaved ([1]; Iopromide 370 mg I/mL, pH 7.4, agent:SBE7CD 1:0.05): 0.00072 wt % | Iodide Formed, Autoclaved ([1]; Iopromide 370 mg I/mL, pH 7.4, no SCD (1:0)): 0.00111 wt % | Iodide formed ([2]; agent:SBE7-β-CD 1:0.1): 0.330 wt % | Iodide formed ([2]; no SCD (1:0)): 0.487 wt % | Iodide Formed, UV ([2]; Iopromide 150 mg I/mL, pH 7.4, agent:SBE7CD 1:0.05, autoclaved then UV 24 h): 0.110 wt % | Iodide Formed, VIS ([2]; Iopromide 150 mg I/mL, pH 7.4, agent:SBE7CD 1:0.05, autoclaved then VIS 72 h): 0.0671 wt % | Iodide Formed, UV ([2]; Iopromide 150 mg I/mL, pH 7.4, no SCD (1:0), autoclaved then UV 24 h): 0.148 wt % | Iodide Formed, VIS ([2]; Iopromide 150 mg I/mL, pH 7.4, no SCD (1:0), autoclaved then VIS 72 h): 0.0735 wt % | Iodide Formed, UV ([2]; Iopromide 240 mg I/mL, pH 7.4, agent:SBE7CD 1:0.05, autoclaved then UV 24 h): 0.113 wt % | Iodide Formed, VIS ([2]; Iopromide 240 mg I/mL, pH 7.4, agent:SBE7CD 1:0.05, autoclaved then VIS 72 h): 0.0413 wt % | Iodide Formed, UV ([2]; Iopromide 240 mg I/mL, pH 7.4, no SCD (1:0), autoclaved then UV 24 h): 0.129 wt % | Iodide Formed, VIS ([2]; Iopromide 240 mg I/mL, pH 7.4, no SCD (1:0), autoclaved then VIS 72 h): 0.0504 wt % | Iodide Formed, UV ([2]; Iopromide 300 mg I/mL, pH 7.4, agent:SBE7CD 1:0.05, autoclaved then UV 24 h): 0.102 wt % | Iodide Formed, VIS ([2]; Iopromide 300 mg I/mL, pH 7.4, agent:SBE7CD 1:0.05, autoclaved then VIS 72 h): 0.0426 wt % | Iodide Formed, UV ([2]; Iopromide 300 mg I/mL, pH 7.4, no SCD (1:0), autoclaved then UV 24 h): 0.110 wt % | Iodide Formed, VIS ([2]; Iopromide 300 mg I/mL, pH 7.4, no SCD (1:0), autoclaved then VIS 72 h): 0.0493 wt % | Iodide Formed, UV ([2]; Iopromide 370 mg I/mL, pH 7.4, agent:SBE7CD 1:0.05, autoclaved then UV 24 h): 0.0780 wt % | Iodide Formed, VIS ([2]; Iopromide 370 mg I/mL, pH 7.4, agent:SBE7CD 1:0.05, autoclaved then VIS 72 h): 0.0351 wt % | Iodide Formed, UV ([2]; Iopromide 370 mg I/mL, pH 7.4, no SCD (1:0), autoclaved then UV 24 h): 0.0989 wt % | Iodide Formed, VIS ([2]; Iopromide 370 mg I/mL, pH 7.4, no SCD (1:0), autoclaved then VIS 72 h): 0.0392 wt %
Structure (SMILES): COCC(=O)Nc1c(I)c(C(=O)NCC(O)CO)c(I)c(C(=O)N(C)CC(O)CO)c1I (stereo not shown) [Iopromide, iopromide]

Structure (SMILES): CC(=O)N(CC(O)CN(C(C)=O)c1c(I)c(C(=O)NCC(O)CO)c(I)c(C(=O)NCC(O)CO)c1I)c1c(I)c(C(=O)NCC(O)CO)c(I)c(C(=O)NCC(O)CO)c1I (stereo not shown) [Iodixanol, iodixanol]
Iodide Formed, Autoclaved ([1]; Iodixanol 270 mg I/mL, pH 7.4, agent:SBE7CD 1:0.05): 0.0161 wt % | Iodide Formed, Autoclaved ([1]; Iodixanol 270 mg I/mL, pH 7.4, no SCD (1:0)): 0.0167 wt % | Iodide Formed, Autoclaved ([1]; Iodixanol 320 mg I/mL, pH 7.4, agent:SBE7CD 1:0.05): 0.0135 wt % | Iodide Formed, Autoclaved ([1]; Iodixanol 320 mg I/mL, pH 7.4, no SCD (1:0)): 0.0132 wt % | Iodide formed ([2]; agent:SBE7-β-CD 1:0.1): 0.220 wt % | Iodide formed ([2]; no SCD (1:0)): 0.292 wt % | Iodide Formed, UV ([2]; Iodixanol 270 mg I/mL, pH 7.4, agent:SBE7CD 1:0.05, autoclaved then UV 24 h): 0.0791 wt % | Iodide Formed, VIS ([2]; Iodixanol 270 mg I/mL, pH 7.4, agent:SBE7CD 1:0.05, autoclaved then VIS 72 h): 0.0288 wt % | Iodide Formed, UV ([2]; Iodixanol 270 mg I/mL, pH 7.4, no SCD (1:0), autoclaved then UV 24 h): 0.0845 wt % | Iodide Formed, VIS ([2]; Iodixanol 270 mg I/mL, pH 7.4, no SCD (1:0), autoclaved then VIS 72 h): 0.0325 wt % | Iodide Formed, UV ([2]; Iodixanol 320 mg I/mL, pH 7.4, agent:SBE7CD 1:0.05, autoclaved then UV 24 h): 0.0743 wt % | Iodide Formed, VIS ([2]; Iodixanol 320 mg I/mL, pH 7.4, agent:SBE7CD 1:0.05, autoclaved then VIS 72 h): 0.0251 wt % | Iodide Formed, UV ([2]; Iodixanol 320 mg I/mL, pH 7.4, no SCD (1:0), autoclaved then UV 24 h): 0.0751 wt % | Iodide Formed, VIS ([2]; Iodixanol 320 mg I/mL, pH 7.4, no SCD (1:0), autoclaved then VIS 72 h): 0.0265 wt %

Source: US20220096664A1, “STABILIZED FORMULATIONS CONTAINING IODINATED CONTRAST AGENTS AND CYCLODEXTRINS” (Verrow Pharmaceuticals, Inc., priority 2012, published 2022)
